This is an account of results in PMC10122656, “Siglec-6 mediates the uptake of extracellular vesicles through a noncanonical glycolipid binding pocket” (Nature Communications, 2023).

Holding throughout (type): cell-based
For test [1], the target named is T1, Siglec-15 WT CHO cells (Homo sapiens, UniProt Q6ZMC9, K274L).
T1 construct: expressed in transfected cells
T1 sequence (Q6ZMC9 20-328 K274L): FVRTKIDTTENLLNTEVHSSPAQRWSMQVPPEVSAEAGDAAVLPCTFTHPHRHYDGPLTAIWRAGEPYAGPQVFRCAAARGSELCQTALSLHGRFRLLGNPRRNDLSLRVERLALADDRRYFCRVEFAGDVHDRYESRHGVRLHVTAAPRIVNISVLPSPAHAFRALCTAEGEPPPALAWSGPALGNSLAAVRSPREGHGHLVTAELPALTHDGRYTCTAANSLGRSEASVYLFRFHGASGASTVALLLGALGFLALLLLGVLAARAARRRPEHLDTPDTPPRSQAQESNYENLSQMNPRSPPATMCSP
Put plainly: Cell assay (liposome/EV binding, flow cytometry). Particulars: Sig-15 WT; 3 mol% ganglioside liposomes; replicates. The procedure, abridged: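 Cells are incubated for 30 min at 37 °C with ligand-displaying liposomes (50 µM lipid) or EVs (50 µg/mL protein) in DMEM F12 containing 5% FBS. After washing and anti-Siglec staining on ice, liposome binding is quantified by flow cytometry within the Siglec-positive population.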
(In general: Flow cytometry measures light scatter and fluorescence of single cells or particles in a stream.)

Test [2] has as its target T2, Siglec-8 WT CHO cells (Homo sapiens, UniProt Q9NYZ4).
T2 construct: expressed in transfected cells
Kind of test: Cell assay (liposome/EV binding, flow cytometry). Particulars: Sig-8 WT; 3 mol% ganglioside liposomes; replicates. The procedure, abridged:
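Binding of AF647-labelled, Siglec ligand-bearing liposomes (130 ± 35 nm) or EVs was measured on transfected CHO cells. Exposure was 50 µM or 50 µg/mL for 30 min at 37 °C; Siglec-positive cells were gated for analysis.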

The target of test [3] is T3, CHO cells expressing Siglec-1 (Homo sapiens, UniProt Q9BZZ2).
T3 construct: expressed in transfected cells
T3 sequence (Q9BZZ2 20-1709): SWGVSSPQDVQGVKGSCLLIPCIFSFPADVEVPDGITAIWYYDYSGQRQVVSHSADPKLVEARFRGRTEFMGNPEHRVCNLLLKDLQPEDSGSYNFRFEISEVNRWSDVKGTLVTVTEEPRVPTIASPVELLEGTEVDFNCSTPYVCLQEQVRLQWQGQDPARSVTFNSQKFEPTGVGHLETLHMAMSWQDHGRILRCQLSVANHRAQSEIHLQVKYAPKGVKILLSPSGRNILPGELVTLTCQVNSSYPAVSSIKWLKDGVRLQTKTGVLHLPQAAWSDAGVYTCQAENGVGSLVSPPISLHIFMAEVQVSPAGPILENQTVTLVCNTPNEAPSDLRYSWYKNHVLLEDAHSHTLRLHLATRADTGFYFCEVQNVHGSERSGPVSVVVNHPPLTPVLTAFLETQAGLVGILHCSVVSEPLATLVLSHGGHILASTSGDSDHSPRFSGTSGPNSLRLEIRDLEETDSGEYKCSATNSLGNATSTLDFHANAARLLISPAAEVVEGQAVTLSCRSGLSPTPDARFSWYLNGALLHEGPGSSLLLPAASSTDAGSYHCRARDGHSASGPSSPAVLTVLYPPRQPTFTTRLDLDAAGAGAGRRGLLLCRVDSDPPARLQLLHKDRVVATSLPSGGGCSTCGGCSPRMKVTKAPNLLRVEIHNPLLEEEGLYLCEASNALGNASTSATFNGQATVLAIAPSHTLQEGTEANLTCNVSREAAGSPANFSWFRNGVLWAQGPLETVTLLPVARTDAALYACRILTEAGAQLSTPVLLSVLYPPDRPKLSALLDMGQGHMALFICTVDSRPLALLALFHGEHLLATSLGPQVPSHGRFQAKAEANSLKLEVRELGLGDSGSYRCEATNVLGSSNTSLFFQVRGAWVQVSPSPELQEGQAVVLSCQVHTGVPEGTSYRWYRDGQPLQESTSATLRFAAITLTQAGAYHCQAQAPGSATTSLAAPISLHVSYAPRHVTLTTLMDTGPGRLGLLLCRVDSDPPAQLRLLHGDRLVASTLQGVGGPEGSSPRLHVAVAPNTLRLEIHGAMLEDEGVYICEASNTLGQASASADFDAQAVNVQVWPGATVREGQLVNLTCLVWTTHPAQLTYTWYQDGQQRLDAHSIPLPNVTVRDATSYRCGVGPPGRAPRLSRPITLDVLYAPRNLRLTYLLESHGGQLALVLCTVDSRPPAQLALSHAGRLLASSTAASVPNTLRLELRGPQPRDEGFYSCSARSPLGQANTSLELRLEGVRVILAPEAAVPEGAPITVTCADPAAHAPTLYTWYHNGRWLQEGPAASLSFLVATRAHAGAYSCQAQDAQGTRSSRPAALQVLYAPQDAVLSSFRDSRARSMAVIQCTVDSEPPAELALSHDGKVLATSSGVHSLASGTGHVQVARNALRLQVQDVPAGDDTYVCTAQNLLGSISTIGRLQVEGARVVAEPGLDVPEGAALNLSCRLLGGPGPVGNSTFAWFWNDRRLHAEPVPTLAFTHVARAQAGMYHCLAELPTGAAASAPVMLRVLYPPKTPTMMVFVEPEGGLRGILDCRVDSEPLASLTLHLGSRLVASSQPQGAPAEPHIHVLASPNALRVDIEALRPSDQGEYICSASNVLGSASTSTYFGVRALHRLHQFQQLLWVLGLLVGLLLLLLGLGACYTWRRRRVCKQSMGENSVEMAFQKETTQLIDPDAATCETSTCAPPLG
Kind of test: Liquid glycan array (LiGA) binding read out by next-generation sequencing. Particulars: for LiGA signal at 0.034: Figure S9, 0.034; for LiGA signal at 0.041: Figure S9, 0.041; for LiGA signal at 0.048: Figure S9, first column 0.048; for LiGA: ganglioside oligosaccharide on phage binding to Siglec-1 CHO cells (Fig. 1e): replicates; for density at which LiGA binding to Siglec-1 CHO cells was maximal: oligosaccharide on phage; for LiGA signal at 0.019: Figure S9, 0.019; for LiGA signal at 0.06: Figure S9, 0.06. Here is the method:
(§1) Solution of five SDB phage clones (10^12−10^13 PFU/mL in PBS) was combined in equal amounts (50 µL) to create a multiplexed silent barcode (MSDB). Twenty-four such MSDB were created and combined DBCO-NHS (50 mM in DMF) to afford a final concentration ranging from 0.25 to 2 mM. The reaction was incubated for 45 min at room temperature. The conjugates were purified by Zeba™ Spin Desalting column (7 kDa MWCO, 0.5 mL, Thermo Fisher) and pVIII modification rate was confirmed by MAL/DI using a previously reported protocol. Typically, 1 mM DBCO-NHS yields 25% of pVIII modification after 45 min incubation. Six MSDB were combined and a solution of azido-glycans (10 mM stock in Nuclease Free H2O) was added to the solution to afford a 2 mM concentration of glycan-azide and the solutions were further incubated overnight at 4 °C. The glycan conjugation was confirmed using MALDI-TOF. The conjugates were purified by Zeba column and supplemented with glycerol and stored as 50% glycerol stock at −20 °C. LiGA mixture was prepared by combining these solutions.
as §1, with “The solution of five” for “Solution of five”, “Fisher) and the pVIII modification” for “Fisher) and pVIII modification”
Confluent CHO cells expressing Siglec-1 or UT CHO cells were detached using PBS plus 5 mM EDTA and washed with PBS (2 × 5 mL). Suspension of at 2 × 10^6 cells in HEPES-1, % BSA (20 mM HEPES, 150 mM NaCl, 2 mM CaCl2, pH 7.4, 1% BSA) in a round bottom 3 mL tube (Corning, #352054) was combined with LiGA (10^8 PFU) and incubated for 1 h at 4 °C. The cells were then washed with HEPES-0.1% BSA in (2 × 3 mL) and HEPES buffer (1 × 1 mL). The washed cell pellet was resuspended in 30 µL nuclease-free H2O. The solution was incubated at 90 °C for 15 min, centrifuged at 21,000 × g for 10 min, and 25 µL of the supernatant was used for PCR and sequencing.

Where [4] appears, read: oligosaccharide density 0.008 Ligand/nm2.
The mark [5] stands for this setting: oligosaccharide density 0.019 Ligand/nm2.
Setting [6] is: oligosaccharide density 0.034 Ligand/nm2.
The mark [7] stands for this setting: oligosaccharide density 0.041 Ligand/nm2.
The mark [8] stands for this setting: oligosaccharide density 0.048 Ligand/nm2.
Setting [9] is: oligosaccharide density 0.06 Ligand/nm2.

Values joined by “and” are separate entries in the source; they are usually repeats but may differ in a detail not shown here. Equal entries are not always repeated.

T2 sequence (Q9NYZ4 17-499): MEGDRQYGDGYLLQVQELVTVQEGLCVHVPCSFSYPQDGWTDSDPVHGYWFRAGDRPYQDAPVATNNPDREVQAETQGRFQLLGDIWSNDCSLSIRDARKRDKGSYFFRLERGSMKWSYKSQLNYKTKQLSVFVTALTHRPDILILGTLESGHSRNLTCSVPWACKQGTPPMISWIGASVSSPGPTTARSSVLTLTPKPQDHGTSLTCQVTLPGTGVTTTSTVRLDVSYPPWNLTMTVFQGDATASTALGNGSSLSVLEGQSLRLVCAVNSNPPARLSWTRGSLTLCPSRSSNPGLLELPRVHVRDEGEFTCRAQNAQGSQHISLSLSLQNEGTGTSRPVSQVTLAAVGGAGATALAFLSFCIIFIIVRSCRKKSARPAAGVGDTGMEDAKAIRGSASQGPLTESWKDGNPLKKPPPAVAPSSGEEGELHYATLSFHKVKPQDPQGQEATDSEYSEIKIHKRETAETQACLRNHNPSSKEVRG

For GD1a, the “log10(MFI AF647) of GLL relative to log10(MFI AF647) of the same GLL against UT CHO cells (Fig. 2a)” value was -0.08 and -0.06 and -0.07 (2×) in test [1]; -0.17 and -0.14 and -0.12 and -0.13 in test [2]. Also, the “LiGA signal at 0.034” value in test [3] is 3.442 and 2.502 and 3.222 and 3.062 and 2.777. Further, the “LiGA signal at 0.041” value in test [3] was 1.814 and 2.04 and 1.9 and 2.274 and 1.639. Besides, in test [3], the “LiGA signal at 0.048” value was 1.684 and 1.501 and 1.621 and 1.606. In addition, the “LiGA signal at 0.066” value in test [3] (Figure S9, first column 0.066) was 2.309 and 1.395 and 2.352 and 2.266. Besides, the “LiGA: ganglioside oligosaccharide on phage binding to Siglec-1 CHO cells (Fig. 1e)” value (“LiGA: ganglioside oligosaccharide” for short) was 0.05 (4×) and 0.04 in test [3] (setting [4]); 0.2 and 0.13 and 0.03 and 0.15 in test [3] (setting [5]); 0.41 and 0.39 and 0.36 and 0.44 and 0.32 in test [3] (setting [6]); 0.24 and 0.29 and 0.21 and 0.23 and 0.26 in test [3] (setting [7]); 0.19 and 0.21 (2×) and 0.22 and 0 in test [3] (setting [8]); 0.18 and 0.3 (2×) and 0.29 in test [3] (oligosaccharide density 0.066 Ligand/nm2). For the same substance, the “density at which LiGA binding to Siglec-1 CHO cells was maximal” value in test [3] is given as ~ 26 nm^2/ligand.
As for GD1b, the “log10(MFI AF647) of GLL relative to log10(MFI AF647) of the same GLL against UT CHO cells (Fig. 2a)” value in test [1] is -0.14 (2×) and -0.12 (2×); in test [2], -0.17 (2×) and -0.15 (2×).
Take GD3: the “log10(MFI AF647) of GLL relative to log10(MFI AF647) of the same GLL against UT CHO cells (Fig. 2a)” value was -0.02 and -0.01 and 0 and -0.03 in test [1]; -0.11 and -0.06 and -0.09 and -0.01 in test [2].
Consider GM1, for which the “log10(MFI AF647) of GLL relative to log10(MFI AF647) of the same GLL against UT CHO cells (Fig. 2a)” value in test [1] was -0.21 and -0.2 and -0.17 (2×); in test [2], -0.02 (3×) and 0.04. The “LiGA signal at 0.019” value in test [3] was 0.643 and 0.783 and 0.76 and 0.6. In addition, the “LiGA signal at 0.034” value in test [3] was 0.857 and 0.909 and 0.746 and 0.756 and 0.912. For the same substance, the “LiGA signal at 0.06” value in test [3] was 1.503 and 0.848 and 1.103 and 0.902 and 1.094. Moreover, the “LiGA signal at 0.048” value in test [3] is 0.51 and 0.478 and 0.553 and 0.673. Besides, the “LiGA: ganglioside oligosaccharide” value in test [3] (setting [4]) is 0.12 and 0.09 (2×) and 0.04; in test [3] (setting [5]) it was 0.08 (2×) and 0.1 (2×); in test [3] (setting [6]), 0.11 and 0.12 (2×) and 0.1 (2×); in test [3] (setting [7]) it was 0.07 (3×) and 0.08; in test [3] (setting [8]) it was 0.07 (2×) and 0.06 and 0.09; in test [3] (setting [9]), 0.19 and 0.11 and 0.14 (2×) and 0.12.
Consider GM2, for which the “log10(MFI AF647) of GLL relative to log10(MFI AF647) of the same GLL against UT CHO cells (Fig. 2a)” value in test [1] is -0.07 and -0.05 and -0.03 (2×); in test [2], -0.18 (2×) and -0.15 and -0.17. Moreover, in test [3], the “LiGA signal at 0.019” value is 0.917 and 0.919 and 0.922 and 1.035 and 1.785. Also, the “LiGA signal at 0.06” value in test [3] is 5.095 and 7.961 and 4.56 and 5.475. For the same substance, the “LiGA signal at 0.048” value in test [3] was 6.111 and 6.403 and 6.572 and 7.724 and 12.213. The “LiGA: ganglioside oligosaccharide” value was 0.1 (2×) and 0.05 and 0.07 in test [3] (setting [4]); 0.12 (3×) and 0.13 and 0.23 in test [3] (setting [5]); 0.71 and 1.24 and 1.08 and 1.35 and 0.62 in test [3] (setting [6]); 0.82 and 0.84 and 0.99 and 0.78 in test [3] (setting [8]); 1.02 and 0.58 and 0.7 and 0.65 in test [3] (setting [9]). For the same substance, the “density at which LiGA binding to Siglec-1 CHO cells was maximal” value in test [3] was ~ 26 nm^2/ligand.
Regarding GM3, the “log10(MFI AF647) of GLL relative to log10(MFI AF647) of the same GLL against UT CHO cells (Fig. 2a)” value was -0.12 and -0.09 (2×) and -0.1 in test [1]; -0.22 and -0.18 and -0.2 and -0.17 in test [2]. In test [3], the “LiGA signal at 0.034” value is 0.358 and 0.619 and 0.601 and 0.534. The “LiGA signal at 0.041” value in test [3] is 0.827 and 1.082 and 1.01 and 1.1 and 0.616. The “LiGA signal at 0.048” value in test [3] was 0.881 and 0.783 and 0.773 and 1.152. In addition, the “LiGA: ganglioside oligosaccharide” value in test [3] (setting [4]) is 0.19 and 0.09 and 0.07 and 0.1 and 0.08; in test [3] (setting [5]) it was 0.12 and 0.11 and 0.1 and 0.19 and 0.05; in test [3] (setting [6]), 0.05 and 0.08 (2×) and 0.07; in test [3] (setting [7]), 0.11 and 0.14 (2×) and 0.13 and 0.08; in test [3] (setting [8]), 0.11 and 0.1 (2×) and 0.15; in test [3] (setting [9]) it was 0.13 and 0.15 and 0.07 and 0.06.
As to GM4, the “log10(MFI AF647) of GLL relative to log10(MFI AF647) of the same GLL against UT CHO cells (Fig. 2a)” value was -0.1 and -0.08 (2×) and -0.07 in test [1]; -0.15 (2×) and -0.14 and -0.13 in test [2].
In the case of GQ1b, the “log10(MFI AF647) of GLL relative to log10(MFI AF647) of the same GLL against UT CHO cells (Fig. 2a)” value in test [1] is -0.13 and -0.12 (2×) and -0.17; in test [2], -0.02 (2×) and -0.04 and 0.24.
On to GT1b, for which the “log10(MFI AF647) of GLL relative to log10(MFI AF647) of the same GLL against UT CHO cells (Fig. 2a)” value was -0.04 (3×) and -0.01 in test [1]; -0.21 and -0.22 and -0.23 and -0.19 in test [2].
